# Test results from patent publication US9579337B2, “Use of uridine and deoxyuridine to treat folate-responsive pathologies” (priority 2011, dated 2017).
# Assays:
# [1] = system: splotch mutant (Pax3^Sp); details: splotch mutant / splotch homozygotes; literature (Wlodarczyk 2005; Fleming 1998; others); cited from earlier work
# [2] = system: Shmt1-deficient embryos (NTDs, exencephaly); assay: Neural tube defects (exencephaly) in embryos of Shmt1 dams fed nucleoside-supplemented diets; type: in vivo, mouse; details: for prevention of NTDs by supplementation of the folate-deficient (FD) diet: maternal folate deficiency, 0.2% thymidine or 0.1% 2'-deoxyuridine in diet; for Shmt1+/+ embryos with exencephaly: crosses involving Shmt1+/+ dams
# Source text: NTDs were examined in litters harvested from crosses of 129SvEv-Shmt1 (N=10 and more) mice. Shmt1^+/−, Shm1^+/+, and Shmt1^−/− mice were generated from Shmt1^+/− breeding pairs maintained as a heterozygote breeding colonies. Shmt1^+/+ and Shmt1^−/− female mice were then crossed to Shmt1^+/− male mice for timed mating experiments, as described below.
# Mice were maintained on a 12-hour light/dark cycle in a temperature-controlled room. For studies investigating Shmt1 disruption and NTDs, female mice were randomly assigned at weaning to experimental AIN93G diets containing folic acid (C) or AIN93G lacking folic acid (FD) (FIG. 2) and including 0.6% uridine (Rudolph F B & Van Buren C T (1993), which is hereby incorporated by reference in its entirety), 0.2% thymidine (Iwasa et al., “The Well-Balanced Nucleoside-Nucleotide Mixture ‘0G-VI’ for Special Medical Purposes,” Nutrition 13(4):361-364 (1997), which is hereby incorporated by reference in its entirety), or 0.1% 2′-Deoxyuridine supplementation (Dyets, Bethlehem, Pa.). Diets were assigned with these abbreviations: AIN-93G as control (“C”); Folate Deficient (“FD”), C+ supplemented with 0.6% uridine (“C+U”), C+ supplemented with 0.2% thymidine (“C+T”), C+ supplemented with 0.1% 2′-Deoxyuridine (“C+dU”), FD+ supplemented with 0.6% uridine (“FD+U”), FD+ supplemented with 0.2% thymidine (“FD+T”), FD+ supplemented with 0.1% 2′-Deoxyuridine (“FD+dU”).
# (§1) For all studies, mouse dams were maintained on diet from weaning throughout the breeding period and for the duration of gestation, until killed. Virgin female mice aged 70-120 days were housed overnight with males. The following morning, females were examined for the presence of a vaginal plug. Nine o'clock a.m. the day of the plug appearance was designated as gestational day 0.5 (E0.5). Pregnant females were sacrificed by cervical dislocation at E11.5 and blood was collected by cardiac puncture. Gravid uteri were removed and all implants and resorption sites were recorded. Embryos were examined for presence of NTDs and measured for crown-rump length. All yolk sacs were collected for subsequent genotyping. Embryos were extracted at E11.5 and rapidly frozen in liquid nitrogen followed by storage at −80° C. for biochemical analyses. Embryos examined for morphological abnormalities were derived at E11.5, and fixed in 10% neutral buffered formalin.
# Analysis of NTD incidence, including differences between Genotypes, Diets, and interactions of Diet×genotype were analyzed by 2-factor ANOVA by using Tukey's honestly significant difference for post hoc analysis.
# [3] = system: embryos and litters of Shmt1 dams; assay: Implants, resorptions, dead embryos and crown-rump length in litters of Shmt1 dams; type: in vivo, mouse; details: for implantation, dead embryos occurrence, rates of resorption compared with C diet: litters from dams
# Source text: as §1
# Analysis of embryonic CR length, total litter resorptions and implants was analyzed by 2-factor ANOVA with Tukey's honestly significant difference for post hoc analysis, in which litter was considered as a random effect. Independent variables included maternal genotype and diet. Resorption rate was calculated as the ratio of resorptions/total implants per litter and log-transformation was applied to normalize the data. Chi-squared analyses were used to assess any deviation from expected genotype ratios based on Mendelian inheritance. Analysis of uracil concentration, Thymidine, deoxyuridine, glucose and folate were conducted by 2-factor ANOVA with Tukey honestly significant differences for post hoc analysis. Independent variables included maternal genotype and diet. All test were performed in JMP version 8.02 (SAS institute). Western blots analyses were assessed using ANOVA and Dunnett's Multiple Comparison Test. […] All statistics were performed using GraphPad Prism version 4.00 for Windows, GraphPad Software, San Diego Calif. USA.
# [4] = system: female mice; assay: Gross observations in female mice weaned on the diets; type: in vivo, mouse
# [5] = system: intestinal tumors in Apc-min mice; assay: Intestinal tumor number in Apc-min mice fed supplemented diets; type: in vivo, mouse; details: for intestinal tumors (number per mouse): AIN-93G diet lacking folic acid supplemented with 0.6% uridine or 0.1% deoxyuridine, FD alone 35+/-5
# Source text: SHMT1 null ([…]) mice were generated as previously described (MacFarlane et al., “Cytoplasmic Serine Hydroxymethyltransferase Regulates the Metabolic Partitioning of Methylenetetrahydrofolate but is Not Essential in Mice,” J. Biol. Chem. 283(38):25846-25853 (2008), which is hereby incorporated by reference in its entirety) and backcrossed a minimum of 10 generations onto the C57BL/6J strain. Mice were genotyped using the forward primer 5′-GACACTGTTCACATCCCTC-3′ (SEQ ID NO:1) and the reverse primer 5′-CAAAACATTCGGGAGCCTC-3′ (SEQ ID NO:2). The forward primer corresponds to an intron 6 sequence located 5′ to a loxP site and exon 7 and the reverse primer corresponds to an intron 7 sequence located downstream of a 3′ loxP site (MacFarlane et al., “Cytoplasmic Serine Hydroxymethyltransferase Regulates the Metabolic Partitioning of Methylenetetrahydrofolate but is Not Essential in Mice,” J. Biol. Chem. 283(38):25846-25853 (2008), which is hereby incorporated by reference in its entirety). C57BL/6J-Apc^Min/J (Apc^min/+) mice were obtained. Genotyping of Apc^min/+ mice was performed using the following primers recommended by The Jackson Laboratory protocol: wild-type forward primer 5′-GCCATCCCTTCACGTTAG-3′ (SEQ ID NO:3), Min forward primer 5′-[…]-3′ (SEQ ID NO:4), and a common reverse primer 5′-TTCCACTTTGGCATAAGGC-3′ (SEQ ID NO:5). […]
# The small intestine and colon were removed, flushed with cold PBS, opened longitudinally, and laid flat lumen side up for examination using a dissecting microscope as previously described (Chiu et al., “Sulindac Causes Rapid Regression of Preexisting Tumors in Min/+Mice Independent of Prostaglandin Biosynthesis,” Cancer Res. 57:4267-73 (1997), which is hereby incorporated by reference in its entirety). Tumors were counted according to intestinal location (small intestine or colon) and their diameter measured by a pathologist-trained investigator who was blinded to the genotype of the intestinal specimen. Tumor load is a function of tumor number and area and was calculated as the total tumor area per mouse. […]
# [6] = Shmt1-/- dams fed FD+T diet (0.2% thymidine), out of 32
# [7] = Shmt1+/+ dams, C+U diet (inferred), out of 69
# [8] = Shmt1+/+ female mice fed FD+U diet (0.6% uridine), out of 56
structure (smiles),measurement,setting,value
Nc1nc2ncc(CNc3ccc(C(=O)N[C@@H](CCC(=O)O)C(=O)O)cc3)nc2c(=O)[nH]1 [folic acid],rescue / prevention of NTDs by dietary supplementation,[1],can be rescued
"O=c1ccn([C@H]2C[C@H](O)[C@@H](CO)O2)c(=O)[nH]1 [deoxyuridine, 2′-Deoxyuridine]",NTD occurrence,[2]; Shmt1+/+ and Shmt1-/- dams fed FD+dU diet (folic acid deficient + 0.1% 2'-deoxyuridine),did not exhibit NTDs
same,prevention of NTDs by supplementation of the folate-deficient (FD) diet,[2],prevented NTDs
same,number of dead embryos,[3]; dams fed FD+dU and C+dU diets (0.1% 2'-deoxyuridine),"higher number of dead embryos, but the differences did not reach significance"
same,"implantation, dead embryos occurrence, rates of resorption compared with C diet",[3],"Neither implantation, dead embryos occurrence, or rates of resorption were significantly different"
same,other gross findings,[4]; dU and dUFD groups,"Edematous of internal organs (up to 4 mice from dU and dUFD groups together), blood in GI track and uterus, and discoloration of pancreas"
same,lymphoid aggregates on colons compared to other groups,[4]; female mice weaned on C+dU and FD+dU,High frequency of numerous lymphoid aggregates
same,intestinal tumors (number per mouse),[5],29+/−2.0
same,effect on tumor number,[5]; FD diet + 0.1% deoxyuridine,no effect on tumor number
"Cc1cn([C@H]2C[C@H](O)[C@@H](CO)O2)c(=O)[nH]c1=O [thymidine, reference compound]",number of embryos with NTDs,"[2]; Shmt1+/+ dams fed FD+T diet (0.2% thymidine), out of 49",2 NTDs
same,frequency of NTDs (exencephaly) in embryos,"[2]; Shmt1+/+ dams fed FD+T diet (AIN93G lacking folic acid + 0.2% thymidine), out of 49",4.1%
same,frequency of NTDs (exencephaly) in embryos,[2]; [6],9.4%
same,number of embryos with NTDs,[2]; [6],3 NTDs
same,Shmt1+/+ embryos with exencephaly,[2],one
same,NTD occurrence,[2]; dams fed C+T diet (AIN-93G + 0.2% thymidine),No NTDs were uncovered
same,prevention of NTDs by supplementation of the folate-deficient (FD) diet,[2],did not prevent NTD occurrence and not
O=c1ccn([C@@H]2O[C@H](CO)[C@@H](O)[C@H]2O)c(=O)[nH]1 [uridine],frequency of exencephaly in embryos,[2]; [7],5.8%
same,number of embryos with NTDs,[2]; [7],4 NTDs
same,frequency of exencephaly in embryos,[2]; [8],5.4%
same,number of embryos with exencephaly,[2]; [8],3
same,number of embryos with exencephaly,"[2]; Shmt1-/- dams fed FD+U diet (0.6% uridine), of 44 viable embryos",7
same,frequency of exencephaly in embryos,"[2]; Shmt1-/- dams fed FD+U diet (folate deficient + 0.6% uridine), of 44 viable embryos",15.9%
same,frequency of exencephaly in embryos,"[2]; Shmt1-/- dams, C+U diet (AIN-93G + 0.6% uridine; diet inferred from next sentence), out of 50 viable embryos",6%
same,number of embryos with NTDs,"[2]; Shmt1-/- dams, C+U diet (inferred), out of 50 viable embryos",3 NTDs
same,Shmt1+/+ embryos with exencephaly,[2],One
same,effect on NTD frequency,"[2]; uridine supplementation, independent of dietary folic acid",exacerbated NTD frequency
same,"implantation, dead embryos occurrence, rates of resorption compared with C diet",[3],"Neither implantation, dead embryos occurrence, or rates of resorption were significantly different"
same,intestinal tumors (number per mouse),[5],18+/−2
